Results reported in patent publication US5686482A, “N-(3-pyrrolidinyl) benzamide derivative” (priority 1994, dated 1997).
Where two headings read alike, the source gives them in different places.

How the values were obtained:
[1] = system: D2, D3 and D4 subtype receptors; details: existing antipsychotic agents; cited from earlier work
schizophrenia patients = details: cited from earlier work
D3 receptor = target: T1, D3 receptor (Rattus norvegicus, UniProt P19020); assay: receptor binding test, D3 receptor; details: for Ki: cloned receptor membrane, [125I]iodosulpride or [3H]YM-09151-2, 25° C., 1 hour; for Ratio D2/D3: ratio of Ki values
T1 construct: expressed in transfected cells
T1 sequence (P19020 whole entry): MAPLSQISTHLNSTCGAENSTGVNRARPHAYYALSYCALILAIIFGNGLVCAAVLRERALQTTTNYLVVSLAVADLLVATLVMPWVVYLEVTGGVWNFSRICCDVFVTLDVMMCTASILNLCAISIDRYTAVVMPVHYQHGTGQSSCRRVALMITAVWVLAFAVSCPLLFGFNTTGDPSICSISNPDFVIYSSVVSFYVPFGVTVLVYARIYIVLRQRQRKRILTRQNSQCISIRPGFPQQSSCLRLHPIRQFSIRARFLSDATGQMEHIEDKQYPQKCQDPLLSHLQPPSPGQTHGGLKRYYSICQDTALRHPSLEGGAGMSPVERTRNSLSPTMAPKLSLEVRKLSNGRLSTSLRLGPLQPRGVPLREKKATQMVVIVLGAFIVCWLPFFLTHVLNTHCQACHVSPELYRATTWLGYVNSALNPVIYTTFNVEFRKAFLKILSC
Description: Using membrane samples of these cells, affinity of compounds for D2 receptor, D3 receptor and D4 receptor was examined by a receptor binding test. The receptor binding test was carried out in the following manner. A D2 receptor, D3 receptor or D4 receptor membrane sample and [^125 I] iodosulpride or [^3 H] YM-09151-2 (trade name, manufactured by Daiichi Pure Chemicals) were incubated at 25° C. for 1 hour in the presence of each compound to be tested. The reaction solution was filtered through a glass filter to measure the amount of radioisotope on the filter.

D4 receptor = target: T2, D4 receptor (Homo sapiens, UniProt P21917); assay: receptor binding test, D4 receptor; details: for Ki: cloned receptor membrane, [125I]iodosulpride or [3H]YM-09151-2, 25° C., 1 hour; for Ratio D2/D4: ratio of Ki values
T2 sequence (P21917 1-419): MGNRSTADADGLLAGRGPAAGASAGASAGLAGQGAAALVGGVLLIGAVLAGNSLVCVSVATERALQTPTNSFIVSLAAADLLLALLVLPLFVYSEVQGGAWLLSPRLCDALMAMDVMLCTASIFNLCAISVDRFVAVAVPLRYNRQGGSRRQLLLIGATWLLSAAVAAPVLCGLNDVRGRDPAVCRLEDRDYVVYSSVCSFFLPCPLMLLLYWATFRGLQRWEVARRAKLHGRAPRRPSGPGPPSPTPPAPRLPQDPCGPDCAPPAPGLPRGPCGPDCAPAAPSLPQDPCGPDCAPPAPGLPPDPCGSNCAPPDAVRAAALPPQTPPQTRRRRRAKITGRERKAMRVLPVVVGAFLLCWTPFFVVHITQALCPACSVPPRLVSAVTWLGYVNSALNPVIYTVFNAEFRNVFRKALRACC

D2 receptor = target: T3, D2 receptor (Rattus norvegicus, UniProt P61169); assay: receptor binding test, D2 receptor; details: cloned receptor membrane, [125I]iodosulpride or [3H]YM-09151-2, 25° C., 1 hour
T3 construct: expressed in transfected cells
T3 sequence (P61169 whole entry): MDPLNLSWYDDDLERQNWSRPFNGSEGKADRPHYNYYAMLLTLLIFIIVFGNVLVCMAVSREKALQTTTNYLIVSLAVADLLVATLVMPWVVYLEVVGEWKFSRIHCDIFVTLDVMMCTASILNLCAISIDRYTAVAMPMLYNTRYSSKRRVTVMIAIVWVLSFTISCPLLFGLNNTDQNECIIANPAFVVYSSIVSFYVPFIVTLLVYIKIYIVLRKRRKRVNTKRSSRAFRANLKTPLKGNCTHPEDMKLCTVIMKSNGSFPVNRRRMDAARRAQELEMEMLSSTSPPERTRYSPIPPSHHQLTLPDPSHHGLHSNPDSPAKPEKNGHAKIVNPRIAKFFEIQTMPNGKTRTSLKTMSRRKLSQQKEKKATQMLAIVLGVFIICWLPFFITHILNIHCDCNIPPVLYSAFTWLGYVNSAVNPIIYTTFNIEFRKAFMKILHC

[2] = system: apomorphine-induced climbing behavior; assay: antagonism test on apomorphine-induced climbing behavior; format: in vivo; details: Mus musculus; SC administration, 15 minutes before apomorphine 2 mg/kg SC; ICR mice; measured during 30 minutes
Description: 2) Antagonism test on apomorphine-induced climbing behavior
Each test compound was administered to ICR mice (body weight, around 35 g; Japan SLC) by subcutaneous injection and, after 15 minutes, apomorphine (2 mg/kg) was subcutaneously injected.

| Ki (D3 receptor) [nM] | Ratio D2/D3 (D3 receptor) | Ki (D4 receptor) [nM] | Ratio D2/D4 (D4 receptor) | Ki (D2 receptor) [nM] | Compound | relative affinity for D2, D3 and/or D4 receptor [1] | side effects such as extrapyramidal symptoms (schizophrenia patients; clinical) | effect on negative symptoms (schizophrenia patients; clinical) | side effects such as extrapyramidal symptoms (schizophrenia patients; human, in vivo) | ED50 [2] [mg/kg] |
| --- | --- | --- | --- | --- | --- | --- | --- | --- | --- | --- |
| 3.5 | 9.7 | 1.8 | 19 | 34 | CNc1cc(C(=O)N[C@H]2CCN(C3C4CCCC3CCC4)C2)c(OC)cc1OC (stereo partly drawn) [Example 30, (S)-N-[1-(bicyclo[3.3.1]non-9-yl)-3-pyrrolidinyl]-2,4-dimethoxy-5-methylaminobenzamide hemifumarate] | – | – | – | – | 1.8 |
| 4 | 88 | 2.6 | 135 | 350 | COc1cc(OC)c(C(=O)N[C@H]2CCN(C3C4CCCC3CCC4)C2)cc1C#N (stereo partly drawn) [Example 19, (S)-N-[1-(bicyclo[3.3.1]non-9-yl)-3-pyrrolidinyl]-5-cyano-2,4-dimethoxybenzamide] | – | – | – | – | – |
| 1.5 | 48 | 1.1 | 65 | 72 | COc1cc(OC)c([N+](=O)[O-])cc1C(=O)N[C@H]1CCN(C2C3CCCC2CCC3)C1 (stereo partly drawn) [Example 7, (S)-N-[1-(bicyclo[3.3.1]non-9-yl)-3-pyrrolidinyl]-2,4-dimethoxy-5-nitrobenzamide] | – | – | – | – | – |

Further lines, the compound ahead of its results:

| Compound | Ki (D3 receptor) [nM] | Ratio D2/D3 (D3 receptor) | Ki (D4 receptor) [nM] | Ratio D2/D4 (D4 receptor) | Ki (D2 receptor) [nM] | relative affinity for D2, D3 and/or D4 receptor [1] | side effects such as extrapyramidal symptoms (schizophrenia patients; clinical) | effect on negative symptoms (schizophrenia patients; clinical) | side effects such as extrapyramidal symptoms (schizophrenia patients; human, in vivo) | ED50 [2] [mg/kg] |
| --- | --- | --- | --- | --- | --- | --- | --- | --- | --- | --- |
| O=C(CCCN1CCC(O)(c2ccc(Cl)cc2)CC1)c1ccc(F)cc1 [haloperidol] | – | – | – | – | – | high affinity for D2 receptor in comparison with D3 receptor and/or D4 receptor | highly frequent onset of side effects | – | – | – |
| CCN1CCCC1CNC(=O)c1cc(S(N)(=O)=O)ccc1OC (stereo not drawn) [sulpiride] | – | – | – | – | – | its affinity for D3 and/or D4 receptor is similar to its affinity for D2 receptor | – | certain degree of effects on negative symptoms | relatively small side effects | – |
| CN1CCN(C2=Nc3cc(Cl)ccc3Nc3ccccc32)CC1 [Clozapine] | – | – | – | – | – | – | small extrapyramidal symptoms | effective for patients mainly having negative symptoms | – | 6.8 |
